Data on five molecules can be found in US20240067693A1, “POLYPEPTIDES AND USES THEREOF” (MEDIMMUNE LIMITED, priority 2020, published 2024).

The EC50 is the concentration that produces a half-maximal response.

Numbered stars: 1 amine (or outer) side, 2 acyl side, 3 side chain; on linkers, the order of the positions; unused ones are H or OH. Bridge positions count the residues as written; N and C are the ends. Square brackets hold non-standard residues; d marks the D form. Side chains are listed from the residue outwards. Peptide text beside a SMILES is read from it. * marks the point of attachment. C18 diacid = O=C(O)CCCCCCCCCCCCCCCCC(=O)*; γGlu = O=C(O)[C@H](CCC(=O)[*:2])N[*:1]; AEEA = NCCOCCOCC(=O)O; Aib = CC(C)(N)C(=O)O

Assay [1] deals with T1, human amylin receptor (calcitonin receptor co-expressed with receptor activity modifying protein, RAMP3) (hAMYR3) (Homo sapiens, UniProt O60896+P30988).
T1 construct: expressed in transfected cells
T1 sequence (P30988 25-474): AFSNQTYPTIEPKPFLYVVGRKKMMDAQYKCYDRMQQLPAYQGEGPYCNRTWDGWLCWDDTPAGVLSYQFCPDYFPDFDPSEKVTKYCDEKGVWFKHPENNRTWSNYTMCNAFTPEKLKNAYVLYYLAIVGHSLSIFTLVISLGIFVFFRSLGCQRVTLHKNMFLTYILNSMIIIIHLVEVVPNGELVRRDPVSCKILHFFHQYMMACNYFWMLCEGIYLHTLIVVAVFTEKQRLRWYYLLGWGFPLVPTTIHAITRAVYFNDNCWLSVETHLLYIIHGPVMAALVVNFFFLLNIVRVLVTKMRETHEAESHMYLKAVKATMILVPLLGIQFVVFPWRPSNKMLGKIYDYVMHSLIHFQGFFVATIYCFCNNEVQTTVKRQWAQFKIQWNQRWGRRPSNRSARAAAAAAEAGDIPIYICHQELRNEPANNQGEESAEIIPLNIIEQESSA
T1 sequence (O60896 24-148 partner): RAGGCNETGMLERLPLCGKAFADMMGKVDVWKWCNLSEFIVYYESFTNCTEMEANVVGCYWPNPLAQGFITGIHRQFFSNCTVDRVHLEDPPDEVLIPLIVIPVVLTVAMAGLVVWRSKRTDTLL
The assay is described as follows: cAMP production in 1321N1 cells with stable recombinant expression of human amylin receptor (hAMYR3). Particulars: for Ratio (selectivity hAMYR vs hCTR, ratio of EC50 values at the two receptors): EC50 hCTR / EC50 hAMYR3; for EC50: cAMP, 1321N1 cells, assay buffer with 0.1% BSA, read-out: EC50 (pM) hAMYR3. In kind it is cell-based. Summed up:
(§1)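 EC50 values come from 4-parameter logistic fits of HTRF cAMP signal, normalised to maximal calcitonin or amylin effect. Peptides were tested in duplicate for 30 min at RT in IBMX-containing (0.5 mM) BSA/HEPES buffer pH 7.4 on stable 1321N1 (human CTR, AMYR3) or HEK (rat CTR, AMYR3) lines.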

The target in assay [2] is T2, human calcitonin receptor (hCTR) (Homo sapiens, UniProt P30988).
T2 construct: expressed in transfected cells
T2 sequence (P30988 25-474): T1 sequence (P30988 25-474)
The assay is described as follows: cAMP production in 1321N1 cells with stable recombinant expression of human calcitonin receptor (hCTR). Format: cell-based. To be noted: cAMP, 1321N1 cells, assay buffer with 0.1% BSA; read-out: EC50 (pM) hCTR. Summed up: as §1
(Changes in cAMP serve as a functional read-out for many G protein-coupled receptors.)

For the molecule `CC[C@H](C)[C@H](NC(=O)[C@@H]1CCCN1C(=O)CNC(=O)[C@H](Cc1ccccc1)NC(=O)[C@H](CC(N)=O)NC(=O)C(C)(C)NC(=O)[C@H](CO)NC(=O)[C@H](CO)NC(=O)[C@H](Cc1c[nH]cn1)NC(=O)[C@H](CCCNC(=N)N)NC(=O)[C@H](CC(C)C)NC(=O)[C@H](Cc1ccccc1)NC(=O)[C@H](CC(N)=O)NC(=O)[C@H](C)NC(=O)[C@H](CC(C)C)NC(=O)[C@H](CCCNC(=N)N)NC(=O)[C@H](CCC(N)=O)NC(=O)[C@@H](NC(=O)[C@H](C)NC(=O)[C@@H]1CSSC[C@H](NC(=O)[C@@H](N)CCCCNC(=O)COCCOCCNC(=O)COCCOCCNC(=O)CC[C@H](NC(=O)CCCCCCCCCCCCCCCCC(=O)O)C(=O)O)C(=O)N[C@@H](CC(N)=O)C(=O)N[C@@H]([C@@H](C)O)C(=O)N[C@@H](C)C(=O)N[C@@H]([C@@H](C)O)C(=O)N1)[C@@H](C)O)C(=O)N[C@@H](CC(C)C)C(=O)N1CCC[C@H]1C(=O)N1CCC[C@H]1C(=O)N[C@H](C(=O)N[C@@H](CCC(=O)O)C(=O)N[C@H](C(=O)NCC(=O)N[C@@H](CO)C(=O)N[C@@H](CC(N)=O)C(=O)N[C@H](C(=O)N[C@@H](Cc1ccc(O)cc1)C(N)=O)[C@@H](C)O)C(C)C)[C@@H](C)O` [Peptide 45, K(O2Oc-O2Oc-γE-C18diacid)[CNTATC]ATQRLANFLRHSS(Aib)NFGPILPPTEVGSNTY-amide] (H-K([AEEA-AEEA-γGlu-C18 diacid])CNTATCATQRLANFLRHSS[Aib]NFGPILPPTEVGSNTY-NH2; disulfide 2-7; N-terminus assumed), in assay [1], the “Ratio (selectivity hAMYR vs hCTR, ratio of EC50 values at the two receptors)” value is 29 and the EC50 came to 588 pM. In assay [2], the EC50 was 16900 pM.

On to `CC[C@H](C)[C@H](NC(=O)[C@@H]1CCCN1C(=O)CNC(=O)[C@H](Cc1ccccc1)NC(=O)[C@H](CC(N)=O)NC(=O)C(C)(C)NC(=O)[C@H](CO)NC(=O)[C@H](CO)NC(=O)[C@H](Cc1c[nH]cn1)NC(=O)[C@@H](NC(=O)[C@H](CC(C)C)NC(=O)[C@H](Cc1ccccc1)NC(=O)[C@H](CC(N)=O)NC(=O)[C@H](C)NC(=O)[C@H](CC(C)C)NC(=O)[C@H](CCCNC(=N)N)NC(=O)[C@H](CCC(N)=O)NC(=O)[C@@H](NC(=O)[C@H](C)NC(=O)[C@@H]1CSSC[C@H](NC(=O)[C@@H](N)CCCCNC(=O)CC[C@H](NC(=O)CC[C@H](NC(=O)CCCCCCCCCCCCCCCCC(=O)O)C(=O)O)C(=O)O)C(=O)N[C@@H](CC(N)=O)C(=O)N[C@@H]([C@@H](C)O)C(=O)N[C@@H](C)C(=O)N[C@@H]([C@@H](C)O)C(=O)N1)[C@@H](C)O)C(C)C)C(=O)N[C@@H](CC(C)C)C(=O)N1CCC[C@H]1C(=O)N1CCC[C@H]1C(=O)N[C@H](C(=O)N[C@@H](CC(N)=O)C(=O)N[C@H](C(=O)NCC(=O)N[C@@H](CO)C(=O)NC(C)(C)C(=O)N[C@H](C(=O)N[C@@H](Cc1ccc(O)cc1)C(N)=O)[C@@H](C)O)C(C)C)[C@@H](C)O` [Peptide 91, K(γE-γE-C18diacid)[CNTATC]ATQRLANFLVHSS(Aib)NFGPILPPTNVGS(Aib)TY-amide] (H-K([γGlu-γGlu-C18 diacid])CNTATCATQRLANFLVHSS[Aib]NFGPILPPTNVGS[Aib]TY-NH2; disulfide 2-7; N-terminus assumed), for which, in assay [1], the “Ratio (selectivity hAMYR vs hCTR, ratio of EC50 values at the two receptors)” value is listed as 12 and the EC50 was found to be 200 pM. In assay [2], the EC50 turned out to be 2360 pM.

Take `CC[C@H](C)[C@H](NC(=O)[C@@H]1CCCN1C(=O)CNC(=O)[C@H](Cc1ccccc1)NC(=O)[C@H](CC(N)=O)NC(=O)[C@H](CC(N)=O)NC(=O)[C@H](CO)NC(=O)[C@H](CO)NC(=O)[C@H](Cc1c[nH]cn1)NC(=O)C(C)(C)NC(=O)[C@H](CC(C)C)NC(=O)[C@H](Cc1ccccc1)NC(=O)[C@H](CC(N)=O)NC(=O)[C@H](C)NC(=O)[C@H](CC(C)C)NC(=O)[C@H](CCCNC(=N)N)NC(=O)[C@H](CCC(N)=O)NC(=O)[C@@H](NC(=O)[C@H](C)NC(=O)[C@@H]1CSSC[C@H](NC(=O)[C@@H](N)CCCCNC(=O)CC[C@H](NC(=O)CC[C@H](NC(=O)CCCCCCCCCCCCCCCCC(=O)O)C(=O)O)C(=O)O)C(=O)N[C@@H](CC(N)=O)C(=O)N[C@@H]([C@@H](C)O)C(=O)N[C@@H](C)C(=O)N[C@@H]([C@@H](C)O)C(=O)N1)[C@@H](C)O)C(=O)N[C@@H](CC(C)C)C(=O)N1CCC[C@H]1C(=O)N1CCC[C@H]1C(=O)N[C@H](C(=O)N[C@@H](CC(N)=O)C(=O)N[C@H](C(=O)NCC(=O)N[C@@H](CO)C(=O)N[C@@H](CC(N)=O)C(=O)N[C@H](C(=O)N[C@@H](Cc1ccc(O)cc1)C(N)=O)[C@@H](C)O)C(C)C)[C@@H](C)O` [Peptide 127] (H-K([γGlu-γGlu-C18 diacid])CNTATCATQRLANFL[Aib]HSSNNFGPILPPTNVGSNTY-NH2; disulfide 2-7; N-terminus assumed): in assay [1], the “Ratio (selectivity hAMYR vs hCTR, ratio of EC50 values at the two receptors)” value amounted to 19.6 and the EC50 is 364 pM. Further, the EC50 in assay [2] was 7130 pM.

Regarding `CC(C)C[C@H](NC(=O)[C@H](CCCNC(=N)N)NC(=O)[C@H](CCC(N)=O)NC(=O)[C@@H](NC(=O)[C@H](C)NC(=O)[C@@H]1CSSC[C@H](NC(=O)[C@H](CCCCN)NC(=O)[C@@H](N)CCCCNC(=O)CC[C@H](NC(=O)CCCCCCCCCCCCCCCCC(=O)O)C(=O)O)C(=O)N[C@@H](CC(N)=O)C(=O)N[C@@H]([C@@H](C)O)C(=O)N[C@@H](C)C(=O)N[C@@H]([C@@H](C)O)C(=O)N1)[C@@H](C)O)C(=O)N[C@@H](C)C(=O)N[C@@H](CC(N)=O)C(=O)N[C@@H](Cc1ccccc1)C(=O)N[C@@H](CC(C)C)C(=O)N[C@H](C(=O)N[C@@H](Cc1c[nH]cn1)C(=O)N[C@@H](CO)C(=O)N[C@@H](CO)C(=O)N[C@@H](CC(N)=O)C(=O)N[C@@H](CC(N)=O)C(=O)N[C@@H](Cc1ccccc1)C(=O)NCC(=O)N1CCC[C@H]1C(=O)NC(C)(C)C(=O)N[C@@H](CC(C)C)C(=O)N1CCC[C@H]1C(=O)N1CCC[C@H]1C(=O)N[C@H](C(=O)N[C@@H](CC(N)=O)C(=O)N[C@H](C(=O)NCC(=O)N[C@@H](CO)C(=O)N[C@@H](CC(N)=O)C(=O)N[C@H](C(=O)N[C@@H](Cc1ccc(O)cc1)C(N)=O)[C@@H](C)O)C(C)C)[C@@H](C)O)C(C)C` [Peptide 106, K(γE-C18diacid)K[CNTATC]ATQRLANFLVHSSNNFGP(Aib)LPPTNVGSNTY-amide] (H-K([γGlu-C18 diacid])KCNTATCATQRLANFLVHSSNNFGP[Aib]LPPTNVGSNTY-NH2; disulfide 3-8; N-terminus assumed), in assay [1], the “Ratio (selectivity hAMYR vs hCTR, ratio of EC50 values at the two receptors)” value came to 7 and the concentration giving a half-maximal response (EC50) was 473 pM. Further, the 50% effective concentration (EC50) in assay [2] stood at 3420 pM.

Regarding `CC[C@H](C)[C@H](NC(=O)[C@@H]1CCCN1C(=O)CNC(=O)[C@H](Cc1ccccc1)NC(=O)[C@H](CC(N)=O)NC(=O)[C@H](CC(N)=O)NC(=O)[C@H](CO)NC(=O)[C@H](CO)NC(=O)[C@H](Cc1c[nH]cn1)NC(=O)C(C)(C)NC(=O)[C@H](CC(C)C)NC(=O)[C@H](Cc1ccccc1)NC(=O)[C@H](CC(N)=O)NC(=O)[C@H](C)NC(=O)[C@H](CC(C)C)NC(=O)[C@H](CCCNC(=N)N)NC(=O)[C@H](CCC(N)=O)NC(=O)[C@@H](NC(=O)[C@H](C)NC(=O)[C@@H]1CSSC[C@H](NC(=O)[C@H](CCCCN)NC(=O)[C@@H](N)CCCCNC(=O)CC[C@H](NC(=O)CCCCCCCCCCCCCCCCC(=O)O)C(=O)O)C(=O)N[C@@H](CC(N)=O)C(=O)N[C@@H]([C@@H](C)O)C(=O)N[C@@H](C)C(=O)N[C@@H]([C@@H](C)O)C(=O)N1)[C@@H](C)O)C(=O)N[C@@H](CC(C)C)C(=O)N1CCC[C@H]1C(=O)N1CCC[C@H]1C(=O)N[C@H](C(=O)N[C@@H](CC(N)=O)C(=O)N[C@H](C(=O)NCC(=O)N[C@@H](CO)C(=O)NC(C)(C)C(=O)N[C@H](C(=O)N[C@@H](Cc1ccc(O)cc1)C(N)=O)[C@@H](C)O)C(C)C)[C@@H](C)O` [Peptide 102, K(γE-C18diacid)K[CNTATC]ATQRLANFL(Aib)HSSNNFGPILPPTNVGS(Aib)TY-amide] (H-K([γGlu-C18 diacid])KCNTATCATQRLANFL[Aib]HSSNNFGPILPPTNVGS[Aib]TY-NH2; disulfide 3-8), in assay [1], the “Ratio (selectivity hAMYR vs hCTR, ratio of EC50 values at the two receptors)” value was determined as 3 and the EC50 turned out to be 479 pM. Moreover, in assay [2], the EC50 came out at 1630 pM.
